From US20070197538A1, “Anti-vascular and anti-proliferation methods, therapies, and combinations employing specific tyrosine kinase inhibitors” (priority 2004, published 2007)
“Also recorded” adds a separate entry of the source. Structures can show the parent of a compound that is named as a salt.

What was measured:
Kit = molecular target: T1, Kit (Homo sapiens, UniProt P10721); assay: recombinant kinase transphosphorylation (33P-ATP) profiling, Kit; type: biochemical; settings: 10 concentrations, n=1
T1 construct: host or cells: baculovirus system

Abl-1 = molecular target: T2, Abl-1 (Homo sapiens, UniProt P00519); assay: recombinant kinase transphosphorylation (33P-ATP) profiling, Abl-1; type: biochemical; settings: 10 concentrations, n=1
T2 construct: host or cells: baculovirus system
Description: (§1) The ability of a set of protein kinases—tyrosine and serine/threonine kinases expressed in a baculovirus system—to incorporate ^33P (from ^33P-ATP) in relevant substrates, in the presence of decreasing concentrations of the inhibitor (10 concentrations from 10^−5 to 3.10^−10, n=1) was determined.

Src = molecular target: T3, Src (Homo sapiens, UniProt P12931); assay: recombinant kinase transphosphorylation (33P-ATP) profiling, Src; type: biochemical; settings: 10 concentrations, n=1
T3 construct: host or cells: baculovirus system

Flt-3 = molecular target: T4, Flt-3 (Homo sapiens, UniProt P36888); assay: recombinant kinase transphosphorylation (33P-ATP) profiling, Flt-3; type: biochemical; settings: 10 concentrations, n=1
T4 construct: host or cells: baculovirus system

FGR = molecular target: T5, FGR (Homo sapiens, UniProt P09769); assay: recombinant kinase transphosphorylation (33P-ATP) profiling, FGR; type: biochemical; settings: 10 concentrations, n=1
T5 construct: host or cells: baculovirus system
Description: as §1

Irak = assay: recombinant kinase transphosphorylation (33P-ATP) profiling, Irak; type: biochemical; settings: 10 concentrations, n=1
Eph-B4 = molecular target: T6, Eph-B4 (Homo sapiens, UniProt P54760); assay: recombinant kinase transphosphorylation (33P-ATP) profiling, Eph-B4; type: biochemical; settings: 10 concentrations, n=1
T6 construct: host or cells: baculovirus system
Description: as §1

Met = molecular target: T7, Met (Homo sapiens, UniProt P08581); assay: recombinant kinase transphosphorylation (33P-ATP) profiling, Met; type: biochemical; settings: 10 concentrations, n=1
T7 construct: host or cells: baculovirus system
Description: as §1

VEGF-R1 = molecular target: T8, VEGF-R1 (Homo sapiens, UniProt P17948); assay: recombinant kinase transphosphorylation (33P-ATP) profiling, VEGF-R1; type: biochemical; settings: 10 concentrations, n=1
T8 construct: host or cells: baculovirus system
Description: as §1

VEGF-R2 = molecular target: T9, VEGF-R2 (Homo sapiens, UniProt P35968); assay: recombinant kinase transphosphorylation (33P-ATP) profiling, VEGF-R2; type: biochemical; settings: 10 concentrations, n=1
T9 construct: host or cells: baculovirus system
Description: as §1

FGF-R1 = molecular target: T10, FGF-R1 (Homo sapiens, UniProt P11362); assay: recombinant kinase transphosphorylation (33P-ATP) profiling, FGF-R1; type: biochemical; settings: 10 concentrations, n=1
T10 construct: host or cells: baculovirus system
Description: as §1

FGF-R4 = molecular target: T11, FGF-R4 (Homo sapiens, UniProt P22455); assay: recombinant kinase transphosphorylation (33P-ATP) profiling, FGF-R4; type: biochemical; settings: 10 concentrations, n=1
T11 construct: host or cells: baculovirus system
Description: as §1

IGF1-R = molecular target: T12, IGF1-R (Homo sapiens, UniProt P08069); assay: recombinant kinase transphosphorylation (33P-ATP) profiling, IGF1-R; type: biochemical; settings: 10 concentrations, n=1
T12 construct: host or cells: baculovirus system
Description: as §1

MV4-11 cells (FLT3-ITD) = assay: MV4-11 cell growth, luminescence assay at 72 hours; type: cell-based, human
Description: Staurosporine, a non specific kinase inhibitor, was used as positive control.

MOLM-13 cells (FLT3-ITD) = assay: MOLM-13 cell growth, luminescence assay at 72 hours; type: cell-based
Description: Staurosporine, a non specific kinase inhibitor, is used as positive control.

[1] = system: RS4-11 cells (FLT3-wild type); assay: RS4-11 cell growth, luminescence assay at 72 hours; type: cell-based, human; settings: with or without 100 ng/mL FLT3 ligand, FIGS. 5 and 6
[2] = system: MAPK, P13K and STAT5 pathways; assay: FLT3 downstream signaling phosphorylation in AML FLT3-ITD cell lines; type: cell-based; settings: immunoprecipitations/western blot
MV4-11 and MOLM-13 cells = assay: apoptosis by annexin V-FITC / propidium iodide flow cytometry; type: cell-based; settings: 48 to 72 hours incubation
Description: Apoptosis was evaluated by means of flow cytometry to measure cellular binding of an annexin V-FITC conjugate as well as uptake of the vital stain propidium iodide.

[3] = system: protein kinases belonging to families different from the tyrosine kinase family; assay: kinase profiling, protein kinases outside the tyrosine kinase family; type: biochemical
[4] = system: Mouse endothelial cells from pancreas; assay: sensitivity of pancreas endothelial cells to Taxotere cytotoxicity; type: cell-based; settings: with Taxotere
Description: Mouse endothelial cells from pancreas are maintained in culture at a temperature 33° C. where they are actively dividing.

L3.6 pL pancreatic tumor = assay: orthotopic human pancreatic cancer L3.6 pL in nude mice; type: in vivo
Description: A pancreatic tumor which is shown to upregulate expression of PDGF AA, BB, A/B at metastatic sites is used for the in vivo studies. Other tumor systems that are known to upregulate expression of PDGF may also be used such as ovarian cancer, prostate cancer, bone metastasis, or breast cancer bone metastasis.
Tumor cells L3.6 pL derived from pancreatic cancer are injected into the pancreas of nude mice. The tumors are grown into detectable lesions.
Two days later, the mice are killed and the organs with and without tumors harvested, fixed, and immunostained to evaluate expression of PDGF AA, BB, A/B, PDGF-R (α,β) and status of phosphorylation of PDGF-R (α,β) on tumor cells and organ-specific endothelial cells.
The surviving mice are then killed and the size of tumor and metastasis is measured. Fixation of the tissues and staining of the tumor cells are performed. Endothelial cells are examined for division (PCNA), apoptosis (TUNEL), CD31 (endothelial cells). Expression of PDGF AA, BB, A/B, and phosphorylation of PDGF-Rα/β are further studied in these endothelial cells.

MV4;11 or RS4;11 cells = assay: subcutaneous MV4;11 or RS4;11 tumors in athymic nu/nu mice; type: in vivo; settings: oral, daily or 3 times per week, 50-200 mg/kg, pre-existing tumors
Description: Animals are randomized into treatment groups of 15 mice each for efficacy studies. […] Tumor growth is measured twice weekly using Vernier calipers for the duration of the treatment. Tumor volumes are calculated as the product of length x width x height. On completion of the experiments, mice are sacrificed and tumors are harvested for determination of FLT3 and phosphorylated FLT3 in tumor lysates by immunoprecipitation and Western-blot.

MV4;11 cells = assay: intravenous MV4;11 leukemia model in NOD-SCID mice; type: in vivo
Description: In a subset of animals, bone marrow cell suspensions are prepared by flushing mouse femurs with cold sterile PBS, at experimental timepoints (within 90 days of implantation).

[5] = system: AML193 cells (wild type FLT3); assay: AML193 cell growth, luminescence assay at 72 hours; settings: with or without 100 ng/mL FLT3 ligand, GN963 at concentrations used (30 μM), FIGS. 3 and 4
FLT3-ITD = assay: cellular FLT3 phosphorylation, immunoprecipitation/western blot; settings: immunoprecipitations/western blot
PDGFRa = molecular target: T13, PDGFRa (Homo sapiens, UniProt P16234); assay: recombinant kinase transphosphorylation (33P-ATP) profiling, PDGFRa; type: biochemical; settings: 10 concentrations, n=1
T13 construct: host or cells: baculovirus system

PDGFRb = molecular target: T14, PDGFRb (Homo sapiens, UniProt P09619); assay: recombinant kinase transphosphorylation (33P-ATP) profiling, PDGFRb; type: biochemical; settings: 10 concentrations, n=1
T14 construct: host or cells: baculovirus system

Brk = molecular target: T15, Brk (Homo sapiens, UniProt Q13882); assay: recombinant kinase transphosphorylation (33P-ATP) profiling, Brk; type: biochemical; settings: 10 concentrations, n=1
T15 construct: host or cells: baculovirus system
Description: as §1

Lck = molecular target: T16, Lck (Homo sapiens, UniProt P06239); assay: recombinant kinase transphosphorylation (33P-ATP) profiling, Lck; type: biochemical; settings: 10 concentrations, n=1
T16 construct: host or cells: baculovirus system

EGF-R = molecular target: T17, EGF-R (Homo sapiens, UniProt P00533); assay: recombinant kinase transphosphorylation (33P-ATP) profiling, EGF-R; type: biochemical; settings: 10 concentrations, n=1
T17 construct: host or cells: baculovirus system

Ins-R = molecular target: T18, Ins-R (Homo sapiens, UniProt P06213); assay: recombinant kinase transphosphorylation (33P-ATP) profiling, Ins-R; type: biochemical; settings: 10 concentrations, n=1
T18 construct: host or cells: baculovirus system

T11 sequence (P22455 22-802): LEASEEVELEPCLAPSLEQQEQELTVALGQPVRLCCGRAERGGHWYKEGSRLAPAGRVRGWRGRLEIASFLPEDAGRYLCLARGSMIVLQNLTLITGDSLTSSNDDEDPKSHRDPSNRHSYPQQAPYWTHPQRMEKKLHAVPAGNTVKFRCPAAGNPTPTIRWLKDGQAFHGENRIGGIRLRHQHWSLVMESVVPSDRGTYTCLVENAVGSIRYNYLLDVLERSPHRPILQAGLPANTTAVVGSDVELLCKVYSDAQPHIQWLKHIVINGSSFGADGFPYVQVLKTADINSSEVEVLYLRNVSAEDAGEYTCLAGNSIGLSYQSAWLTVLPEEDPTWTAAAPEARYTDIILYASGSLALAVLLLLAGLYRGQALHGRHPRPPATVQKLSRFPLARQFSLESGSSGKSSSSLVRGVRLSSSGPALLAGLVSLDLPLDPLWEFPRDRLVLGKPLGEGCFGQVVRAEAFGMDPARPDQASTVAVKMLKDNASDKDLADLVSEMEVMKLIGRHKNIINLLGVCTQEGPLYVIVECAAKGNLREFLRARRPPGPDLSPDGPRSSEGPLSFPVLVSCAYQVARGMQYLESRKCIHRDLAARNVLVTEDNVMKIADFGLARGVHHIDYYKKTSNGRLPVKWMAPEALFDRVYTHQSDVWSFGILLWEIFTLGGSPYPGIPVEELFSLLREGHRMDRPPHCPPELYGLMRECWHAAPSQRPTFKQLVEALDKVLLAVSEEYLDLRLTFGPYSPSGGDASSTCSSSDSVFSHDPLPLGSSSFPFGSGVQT
T4 sequence (P36888 27-993): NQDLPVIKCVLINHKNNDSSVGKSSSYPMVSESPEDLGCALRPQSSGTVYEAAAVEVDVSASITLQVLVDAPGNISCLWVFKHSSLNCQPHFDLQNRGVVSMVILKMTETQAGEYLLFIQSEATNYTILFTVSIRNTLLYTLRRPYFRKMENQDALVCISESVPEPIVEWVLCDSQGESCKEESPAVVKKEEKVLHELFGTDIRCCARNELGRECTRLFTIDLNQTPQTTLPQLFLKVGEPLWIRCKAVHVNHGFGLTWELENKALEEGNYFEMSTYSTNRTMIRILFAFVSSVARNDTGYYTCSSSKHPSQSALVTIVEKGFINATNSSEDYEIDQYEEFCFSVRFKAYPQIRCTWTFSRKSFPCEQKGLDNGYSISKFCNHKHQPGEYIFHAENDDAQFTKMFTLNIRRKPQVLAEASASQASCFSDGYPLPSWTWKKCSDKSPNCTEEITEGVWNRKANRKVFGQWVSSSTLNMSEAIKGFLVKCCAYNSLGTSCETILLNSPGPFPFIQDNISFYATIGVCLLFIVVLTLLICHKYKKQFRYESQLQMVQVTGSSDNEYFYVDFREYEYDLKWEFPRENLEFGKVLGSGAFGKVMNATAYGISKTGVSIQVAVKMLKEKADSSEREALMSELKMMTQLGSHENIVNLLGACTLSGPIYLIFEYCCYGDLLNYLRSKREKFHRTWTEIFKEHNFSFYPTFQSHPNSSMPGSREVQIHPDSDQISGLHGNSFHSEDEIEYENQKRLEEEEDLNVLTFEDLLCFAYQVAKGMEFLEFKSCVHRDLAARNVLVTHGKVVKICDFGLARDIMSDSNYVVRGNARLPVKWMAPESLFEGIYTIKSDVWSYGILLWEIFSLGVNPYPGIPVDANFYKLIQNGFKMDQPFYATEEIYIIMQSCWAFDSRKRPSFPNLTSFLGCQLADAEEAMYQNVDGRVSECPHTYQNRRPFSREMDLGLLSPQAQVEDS
T8 sequence (P17948 27-1338): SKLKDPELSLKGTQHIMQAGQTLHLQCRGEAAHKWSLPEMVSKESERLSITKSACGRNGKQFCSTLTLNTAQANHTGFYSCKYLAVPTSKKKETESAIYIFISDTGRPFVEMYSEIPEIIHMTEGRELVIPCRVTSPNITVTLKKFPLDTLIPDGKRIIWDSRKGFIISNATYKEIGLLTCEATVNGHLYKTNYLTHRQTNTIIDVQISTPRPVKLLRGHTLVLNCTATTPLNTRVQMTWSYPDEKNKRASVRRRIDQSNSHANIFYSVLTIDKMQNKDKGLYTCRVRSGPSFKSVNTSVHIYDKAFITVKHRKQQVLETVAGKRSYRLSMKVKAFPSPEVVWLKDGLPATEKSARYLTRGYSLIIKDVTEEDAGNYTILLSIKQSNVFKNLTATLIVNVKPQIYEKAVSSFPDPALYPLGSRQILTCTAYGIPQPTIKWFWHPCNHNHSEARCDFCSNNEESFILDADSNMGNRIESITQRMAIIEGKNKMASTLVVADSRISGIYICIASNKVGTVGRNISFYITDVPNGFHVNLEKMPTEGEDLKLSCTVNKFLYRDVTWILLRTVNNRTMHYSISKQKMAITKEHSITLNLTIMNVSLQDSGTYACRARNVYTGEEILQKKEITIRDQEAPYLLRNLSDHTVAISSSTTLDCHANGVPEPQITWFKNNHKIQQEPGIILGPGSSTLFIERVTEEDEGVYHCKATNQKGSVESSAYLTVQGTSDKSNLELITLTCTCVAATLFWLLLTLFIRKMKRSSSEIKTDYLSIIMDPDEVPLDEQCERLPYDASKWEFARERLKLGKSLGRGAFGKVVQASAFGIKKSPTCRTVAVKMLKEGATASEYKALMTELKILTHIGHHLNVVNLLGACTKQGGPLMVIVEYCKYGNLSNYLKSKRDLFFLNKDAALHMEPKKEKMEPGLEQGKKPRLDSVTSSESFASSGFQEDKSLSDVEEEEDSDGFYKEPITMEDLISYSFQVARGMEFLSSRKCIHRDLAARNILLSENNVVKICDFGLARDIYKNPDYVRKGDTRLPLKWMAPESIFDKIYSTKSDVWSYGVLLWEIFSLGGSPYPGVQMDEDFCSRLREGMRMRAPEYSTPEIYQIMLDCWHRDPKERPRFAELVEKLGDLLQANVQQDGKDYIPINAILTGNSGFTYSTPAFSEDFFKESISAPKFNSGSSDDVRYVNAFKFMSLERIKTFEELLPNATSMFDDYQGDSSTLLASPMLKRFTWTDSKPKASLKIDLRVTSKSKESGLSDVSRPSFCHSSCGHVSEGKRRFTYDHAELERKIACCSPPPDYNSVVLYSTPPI
T10 sequence (P11362 22-822): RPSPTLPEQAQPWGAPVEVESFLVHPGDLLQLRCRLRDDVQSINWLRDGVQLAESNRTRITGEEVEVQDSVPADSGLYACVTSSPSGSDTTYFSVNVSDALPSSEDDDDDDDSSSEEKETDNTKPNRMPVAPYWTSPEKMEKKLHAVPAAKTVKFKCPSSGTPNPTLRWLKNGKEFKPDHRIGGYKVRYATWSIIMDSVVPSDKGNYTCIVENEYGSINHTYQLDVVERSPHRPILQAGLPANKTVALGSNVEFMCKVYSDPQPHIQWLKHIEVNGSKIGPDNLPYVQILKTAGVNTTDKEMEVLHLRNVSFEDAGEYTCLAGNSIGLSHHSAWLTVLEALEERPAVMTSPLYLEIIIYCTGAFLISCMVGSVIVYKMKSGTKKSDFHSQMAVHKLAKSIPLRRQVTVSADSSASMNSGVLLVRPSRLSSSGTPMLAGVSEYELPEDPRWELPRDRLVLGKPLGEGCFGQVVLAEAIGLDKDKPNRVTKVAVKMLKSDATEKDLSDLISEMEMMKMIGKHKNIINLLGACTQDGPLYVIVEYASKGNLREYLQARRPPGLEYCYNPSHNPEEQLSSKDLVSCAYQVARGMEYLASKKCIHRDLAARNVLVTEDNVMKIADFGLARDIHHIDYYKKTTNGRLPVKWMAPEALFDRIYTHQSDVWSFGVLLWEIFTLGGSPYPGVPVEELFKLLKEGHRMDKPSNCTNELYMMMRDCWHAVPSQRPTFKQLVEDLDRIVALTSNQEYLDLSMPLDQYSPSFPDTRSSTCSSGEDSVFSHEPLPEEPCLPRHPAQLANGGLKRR
T2 sequence (P00519 whole entry): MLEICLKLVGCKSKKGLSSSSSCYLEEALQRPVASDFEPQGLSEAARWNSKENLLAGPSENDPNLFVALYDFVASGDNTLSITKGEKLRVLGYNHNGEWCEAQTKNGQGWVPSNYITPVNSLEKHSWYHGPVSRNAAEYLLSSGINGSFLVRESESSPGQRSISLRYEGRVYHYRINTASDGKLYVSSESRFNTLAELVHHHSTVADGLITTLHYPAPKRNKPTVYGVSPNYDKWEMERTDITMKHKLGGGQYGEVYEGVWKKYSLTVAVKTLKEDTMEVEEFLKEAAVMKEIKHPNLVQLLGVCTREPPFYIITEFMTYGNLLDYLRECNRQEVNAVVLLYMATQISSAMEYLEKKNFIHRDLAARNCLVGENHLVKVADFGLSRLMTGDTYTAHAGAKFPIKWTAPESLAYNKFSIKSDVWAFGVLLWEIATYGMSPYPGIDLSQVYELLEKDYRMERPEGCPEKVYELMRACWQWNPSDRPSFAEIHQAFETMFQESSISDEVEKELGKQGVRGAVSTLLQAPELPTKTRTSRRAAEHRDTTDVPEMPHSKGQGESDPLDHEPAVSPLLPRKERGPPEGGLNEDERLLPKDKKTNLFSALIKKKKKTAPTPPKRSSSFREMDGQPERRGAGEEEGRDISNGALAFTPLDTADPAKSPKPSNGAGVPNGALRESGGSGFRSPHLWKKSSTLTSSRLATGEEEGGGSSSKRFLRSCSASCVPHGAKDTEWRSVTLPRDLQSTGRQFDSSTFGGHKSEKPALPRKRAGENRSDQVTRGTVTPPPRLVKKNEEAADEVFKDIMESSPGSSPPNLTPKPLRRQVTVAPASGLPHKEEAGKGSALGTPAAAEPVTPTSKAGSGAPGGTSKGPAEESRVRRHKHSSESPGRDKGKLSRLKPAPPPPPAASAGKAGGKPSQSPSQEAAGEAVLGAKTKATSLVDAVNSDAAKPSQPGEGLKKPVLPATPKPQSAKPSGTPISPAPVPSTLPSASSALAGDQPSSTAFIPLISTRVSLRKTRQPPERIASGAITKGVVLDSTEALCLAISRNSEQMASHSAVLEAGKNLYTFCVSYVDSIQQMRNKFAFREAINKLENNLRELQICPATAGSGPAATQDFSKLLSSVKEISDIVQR

For `COc1cc2ncc(N[C@H]3CC[C@H](O)CC3)nc2cc1OC` [GN963, trans-4-(6,7-dimethoxy-quinoxalin-2-ylamino)-cyclohexanol sulfate], which IC50 (Kit) is on record?
The IC50 was 7200 nM.

What about the IC50 (Abl-1) of the same compound?
The IC50 was 13000 nM.

What about the IC50 (Src) of the same compound?
The IC50 was 3600 nM.

What about the IC50 (Flt-3) of the same compound?
The IC50 was 1400 nM.

And the IC50 (FGR)?
Its IC50 is 17000 nM.

And the IC50 (Irak)?
The IC50 was 4100 nM.

And the IC50 (Eph-B4)?
The IC50 was 7200 nM.

And the IC50 (Met)?
Its IC50 is > 10000 nM.

What about the IC50 (VEGF-R1) of the same compound?
The IC50 was > 10000 nM.

What about the IC50 (VEGF-R2) of the same compound?
Its IC50 is > 10000 nM.

What about the IC50 (FGF-R1) of the same compound?
The IC50 was > 10000 nM.

And the IC50 (FGF-R4)?
Its IC50 is > 10000 nM.

What about the IC50 (IGF1-R) of the same compound?
Its IC50 is > 10000 nM.

What about the “effect on MV4-11 cell growth” value (MV4-11 cells (FLT3-ITD); 72 hours, luminescence assay, FIG. 1) of the same compound?
Its value is “inhibits MV4-11 cell growth in a dose dependent manner”.

And the IC50 (MV4-11 cells (FLT3-ITD); Homo sapiens, MV4-11, 72 h with inhibitor, Cell Titer-Glo, range stated for MV4-11 and MOLM-13 together, read-out: IC50, inhibition of cellular proliferation)?
Its IC50 is 0.7 to 2 µM.

What about the “effect on MOLM-13 cell growth” value (MOLM-13 cells (FLT3-ITD); 72 hours, luminescence assay, FIG. 2) of the same compound?
The value was “dose response effect”.

And the IC50 (MOLM-13 cells (FLT3-ITD); Homo sapiens, MOLM-13, 72 h with inhibitor, Cell Titer-Glo, range stated for MV4-11 and MOLM-13 together, read-out: IC50, inhibition of cellular proliferation)?
Its IC50 is 0.7 to 2 µM.

And the “effect on RS4-11 cell growth” value [1]?
The value was “not inhibited; also recorded: no effect”.

And the “STAT5, MAPK and P13K phosphorylation” value [2]?
The value was “inhibits STAT5, MAPK and P13K phosphorylation in a dose-dependent manner”.

What about the induction of apoptosis (MV4-11 and MOLM-13 cells) of the same compound?
Its induction of apoptosis is “induce apoptosis”.

And the “phosphorylation mediated by protein kinases of families other than tyrosine kinases” value [3]?
Its value is “did not inhibit”.

What about the “resistance of organ-specific endothelial cells to Taxotere increased by pancreatic tumor-conditioned medium” value [4] of the same compound?
The value was “reversal of this increased resistance”.

What about the “sensitivity of endothelial cells to cytotoxicity mediated by Taxotere” value ([4]; cells at 33° C.) of the same compound?
The value was “increases sensitivity of endothelial cells to cytotoxicity mediated by Taxotere”.

And the survival rate (L3.6 pL pancreatic tumor; combination with Taxotere, 4-6 weeks)?
Its survival rate is “higher survival rate”.

What about the “effect of the combination in cancer refractory to chemotherapy” value (L3.6 pL pancreatic tumor; combination with Taxotere, tumor cells resistant to Taxotere (MDR cells)) of the same compound?
The value was “synergistic effect”.

And the “expression of phosphorylated PDGF-R on endothelial cells” value (L3.6 pL pancreatic tumor; single oral dose, organs harvested two days later)?
The value was “inhibited”.

And the tumor growth (MV4;11 or RS4;11 cells)?
The tumor growth was “efficacy against tumor growth”.

What about the “large infiltrating cells with mitotic figures in bone marrow” value (MV4;11 cells; H&E-stained sections, oral 50-200 mg/kg) of the same compound?
The value was “reduced numbers of large infiltrating cells with mitotic figures”.

What about the “CD45 positive cells in bone marrow” value (MV4;11 cells; flow cytometry, oral 50-200 mg/kg) of the same compound?
Its value is “reduced numbers of CD45 positive cells”.

And the survival (MV4;11 cells; oral, 50-200 mg/kg, once daily or 3 times per week)?
Its survival is “prolonged survival”.

What about the “effect on AML193 cell growth” value [5] of the same compound?
The value was “not inhibited; also recorded: no effect”.

And the FLT3-ITD phosphorylation (FLT3-ITD)?
Its FLT3-ITD phosphorylation is “inhibited FLT3-ITD phosphorylation in a dose-dependent manner”.

Which results are given for “cis-4-(6,7-dimethoxy-quinoxalin-2-ylamino)-cyclohexanol sulfate [Cis-isomer]”?
IC50 (PDGFRa): 1400 nM; IC50 (PDGFRb): 2200 nM; IC50 (Kit): 6100 nM; IC50 (Abl-1): 4400 nM; IC50 (Src): 3200 nM; IC50 (Brk): 5700 nM; IC50 (Lck): 7500 nM; IC50 (Flt-3): > 10000 nM; IC50 (FGR): 4600 nM; IC50 (Irak): > 10000 nM; IC50 (Eph-B4): > 10000 nM; IC50 (Met): 10000 nM; IC50 (VEGF-R1): > 10000 nM; IC50 (EGF-R): > 10000 nM; IC50 (FGF-R1): > 10000 nM; IC50 (FGF-R4): > 10000 nM; IC50 (IGF1-R): > 10000 nM; IC50 (Ins-R): > 10000 nM
